Source: patent US20160000762A1, “IMPROVING COGNITIVE FUNCTION” (THE REGENTS OF THE UNIVERSITY OF CALIFORNIA, priority 2013, published 2016)

Columns and labels:
[1] = Tolerability of daily i.p. injections with necropsy; type: in vivo, wild-type mice; details: ≦50 mg/kg i.p. daily, 16 days
APP = APP processing in vivo (sAPPα, sAPPβ immunoblot); design: species or system wild-type mice; details: 30 mg/kg i.p., 2 weeks
Procedure: To test whether BTA-EG4 alters Aβ production in vitro, primary cortical neurons were treated with BTA-EG4 (1 or 5 μM) or control (10% DMSO), and Aβ levels were measured using ELISA. […] We then examined whether BTA-EG4 can alter Aβ levels in vivo by injecting wild-type mice daily for 2 weeks with BTA-EG4 (15 or 30 mg/kg, 10% DMSO in saline, i.p.). […] Furthermore, BTA-EG4 altered APP processing in vivo, as monitored by increased sAPPα (α-secretase cleavage product) and decreased sAPPβ (β-secretase cleavage product) levels in BTA-EG4 injected wild-type mice (30 mg/kg, i.p) compared to control-injected mice (FIGS. 1E, 1F).

dendritic spines = experiment: Golgi staining, dendritic spines of wild-type mice; type: in vivo; details: 30 mg/kg, 2 weeks
Procedure: Golgi staining and morphological analysis of dendritic spines. To analyze dendritic spine density and morphology in brain, FD RAPID GOLGISTAIN KIT™ (FD NeuroTechnologies, Ellicott City, Md., USA) was used. Dissected mouse brains were immersed in Solution A and B for 2 weeks in dark conditions at room temperature and transferred into Solution C for 24 h at 4° C. Brains were sliced using a VT1000S Vibratome (Leica, Bannockburn, Ill., USA) at 150 μm thickness. Dendritic images were acquired by Axioplan 2 (Zeiss, Oberkochen, Germany) under brightfield microscopy. Spine width, length, and linear density of cortical layers II/III and CA1 of hippocampus were measured using Scion image software (Scion Corporation, Frederick, Md., USA). Images were coded, and dendritic spines counted in a blinded manner. Spines from 0.2 to 2 μm in length were included for analysis. All morphological analysis was done blind to experimental conditions.

[2] = Morris Water Maze, 3× Tg AD mice; type: in vivo; details: for escape latency during training trials: 30 mg/kg daily, 2 weeks
Procedure: Morris Water Maze. To examine the effects of BTA-EG4 on learning and memory, we injected 2-3 month old, 6-10 month old, and 13-16 month old 3× Tg AD mice daily (i.p.) for 2 weeks before beginning behavioral testing as described previously (Minami et al., 2012). The control groupw as treated with vehicle solution (10% DMSO) while the experimental group was treated with BTA-EG4 (30 mg/kg) daily for 2 weeks. Animals were kept on a fixed 12 hour light-dark cycle, and behavioral experiments were conducted during the light portion of this cycle. Specifically, experiments began at 9:30 AM and concluded before 4:00 PM. Briefly, the amount of time required for animals to locate a Plexiglas platform submerged in opaque water was measured in a large circular pool. The animal was randomly placed into one of four quadrants separated by 90°, and the platform was hidden in one of these quadrants (14 in. from the wall). TOPSCAN software tracked the time required (latency, limited to 60 s) to locate the hidden platform, and animals failing to locate the platform within 60 s were gently guided to the platform. On the first trial, animals were allowed to remain on the platform for 15 s. All subsequent trials limited platform time to 10 s, and a probe trial (60 s) was administered 24 h after the final learning trial. Time spent in the quadrant where the platform was previously located and number of platform crossings were recorded during this probe trial. As a control, 12 h after the last trial, animals were required to locate a clearly visible black platform placed in a new location.

BTA-EG4
necropsy findings [1]: no adverse effects on major organs
tolerability of daily injections [1]: well tolerated
sAPPα levels (APP): increased
sAPPβ levels (APP): decreased
dendritic spine density (dendritic spines; CA1 region of the hippocampus): significantly increased
dendritic spine density (dendritic spines; cortical layers II/III): significantly increased
spine morphology (spine head width and spine length) (dendritic spines; hippocampus CA1 and cortical layers II/III): did not alter
swim speed ([2]; 2-3 months): without differing
escape latency during training trials ([2]; 2-3 months): significantly faster
percentage of time in the target quadrant ([2]; 2-3 months, probe trials): greater percentage
platform crossings ([2]; 2-3 months, probe trials): more platform crossings
escape latency during training trials ([2]; 6-10 months): faster
number of platform crossings ([2]; 6-10 months, probe trials): without changes
percentage of time spent in the target quadrant ([2]; 6-10 months, probe trials): significantly improved
measured Morris Water Maze parameters (escape latency, swim speed, target quadrant time, platform crossings) ([2]; 13-16 months): none of the measured parameters were significantly altered
